Measured values taken from publication PMC8260761, “A bacteriocin-based treatment option for Staphylococcus haemolyticus biofilms” (Scientific Reports, 2021).
Read-outs that look alike come from different tables or passages of the source. Where no end group is shown, it is not given here.

Tests used:
[1] = system: planktonic S. haemolyticus; format: cell-based, Staphylococcus haemolyticus
Description: Synergistic interactions between antimicrobials were determined using the fractional inhibition concentration (FIC) as previously described. The FIC values were determined using a mirotiterplate checkerboard assay. Briefly, antimirobial A was applied in wells A1–H1 then diluted two-fold in wells 2–12. In a second microtiter plate, antimicrobial B was applied in wells A1–A12, then diluted two folds in wells B–H. Fifty μl of the serial diluted antimirobial A was transferred to the wells of a third microtiter plate, except for wells H1–H12. Similarly, 50 μl of the serial diluted antimicrobial B was transferred to the same microtiter plate, except for wells A1–A12. Wells H1-12 and wells A1-12 contained only one of the antimicrobials and was used to estimate the MIC value of the pure substance. After combining the antimicrobials, 100 μl of a 1:25 diluted O/N of S. haemolyticus was transferred to each well of the third microplate, while 50 μl of medium was added to wells H1-12 and A1-12. […] FIC values were calculated as follows: FIC = FICa + FICb + FICc, where the FICa means MIC of A in combination/MIC of A alone, FICb means MIC of B in combination/MIC of B, and FICc means MIC of C in combination/MIC of C alone. Effects were considered as synergistic if FIC was ≤ 0.5 for two components mixture[81] and ≤ 0.75 for three components mixture.

[2] = system: L. plantarum WCFS1 strains (with or without S. haemolyticus RseP); format: cell-based, Lactobacillus plantarum
Description: (§1) A semi-quantitative spot-on-lawn inhibitory assay was performed on 51 bacterial indicator strains (Table S1) to determine the bacteriocins inhibition spectra. Overnight cultures were diluted 1:100 in BHI soft agar and distributed on BHI agar plates. Once solidified, bacteriocins with various concentrations were applied on designated spots. The plates were incubated at appropriate temperature O/N and inhibition zones were measured the following day. To determine minimal inhibitory concentration (MIC50) of H1 against clinical S. haemolyticus isolates (Table S2), as well as strains heterologously expressing RseP (Table S4), the microtiterplate antimicrobial assay was performed as previously described[41],[79]. MIC50 was defined as the minimal bacteriocin concentration needs to inhibit the growth of a bacterial strain by at least 50%.
rseP (Uniprot: Q4L5W4) derived from S. haemolyticus 7067_4_21 was heterologously expressed in the naturally H1-resistant L. plantarum WCFS1[36] using the vector pSIP expression system[84],[85]. First, pLp1261_InvS, a pSIP401 derivative[84],[86], was linearized using FastDigest Restrictiction Enzymes NdeI and Acc65I (ThermoFisher Scientific) to isolate the vector part. Second, rseP was amplified by PCR using specially designed In-Fusion Primes (Table S6), giving amplicons with complementary ends to the linearized vector. The In-Fusion HD cloning Kit (Takara Bio) was used to fuse rseP into the linearized vector, yielding pSIP401_SHRseP. The plasmid was subsequently transformed to E.coli TOP10 (ThermoFischer Scientific). Plasmid DNA from E. coli was isolated using NucleoSpin Plasmid Kit (Macherey–Nagel). The DNA sequence of all PCR amplified fragments was verified by sequencing at Eurofins GATC, Germany, and before being electroporated into L. plantarum WCSF1 following the procedure described by Aukrust and Blom[87].

[3] = system: clinical and commensial S. haemolyticus isolates; format: cell-based, Staphylococcus haemolyticus; settings: 5 h
Description: as §1

[4] = system: Staphylococcus haemolyticus strains; assay: Spot-on-lawn inhibition assay; format: cell-based; settings: six S. haemolyticus strains 4068–4073; 0.04, 0.2 and 1.0 mg/ml, 5 µl spotted
Description: as §1

[5] = S. haemolyticus 4068, planktonic cells, 5 h exposure
[6] = S. haemolyticus 4068, planktonic cells, 24 h exposure
[7] = S. haemolyticus 4068, planktonic cells, 48 h exposure
[8] = S. haemolyticus 4069, planktonic cells, 5 h exposure
[9] = S. haemolyticus 4069, planktonic cells, 24 h exposure
[10] = S. haemolyticus 4069, planktonic cells, 48 h exposure
[11] = S. haemolyticus 4070, planktonic cells, 5 h exposure
[12] = S. haemolyticus 4070, planktonic cells, 24 h exposure
[13] = S. haemolyticus 4070, planktonic cells, 48 h exposure
[14] = S. haemolyticus 4071, planktonic cells, 5 h exposure
[15] = S. haemolyticus 4071, planktonic cells, 24 h exposure
[16] = S. haemolyticus 4071, planktonic cells, 48 h exposure
[17] = S. haemolyticus 4072, planktonic cells, 5 h exposure
[18] = S. haemolyticus 4072, planktonic cells, 24 h exposure
[19] = S. haemolyticus 4072, planktonic cells, 48 h exposure
[20] = S. haemolyticus 4073, planktonic cells, 5 h exposure
[21] = S. haemolyticus 4073, planktonic cells, 24 h exposure
[22] = S. haemolyticus 4073, planktonic cells, 48 h exposure

Substance | Inhibition zones at three concentrations [4] | MIC, individual component [1, 5] | MIC, individual component [1, 6] | MIC, individual component [1, 7] | MIC, individual component [1, 8] | MIC, individual component [1, 9] | MIC, individual component [1, 10] | MIC, individual component [1, 11] | MIC, individual component [1, 12] | MIC, individual component [1, 13] | MIC, individual component [1, 14] | MIC, individual component [1, 15] | MIC, individual component [1, 16] | MIC, individual component [1, 17] | MIC, individual component [1, 18] | MIC, individual component [1, 19] | MIC, individual component [1, 20] | MIC, individual component [1, 21] | MIC, individual component [1, 22] | also measured
MKFKFNPTGTIVKKLTQYEINWYKQQYGRYPWERPVA [H1] |  |  |  |  |  |  |  |  |  |  |  |  |  |  |  |  |  |  |  | MIC50 over the tested strains ([1]; planktonic, 5 h): 0.78 µg/mL; MIC, individual component ([1]; planktonic, 24 h): 0.78 µg/mL; Minimal inhibitory concentration (MIC) ([2]; L. plantarum WCFS1): > 50 µg/mL; Minimal inhibitory concentration (MIC) ([2]; L. plantarum WCFS1/pEV, expressing empty vector): > 50 µg/mL; Minimal inhibitory concentration (MIC) ([2]; L. plantarum WCFS1/pSIP401_SHRseP, expressing RseP from S. haemolyticus 7067_4_21): 0.39 µg/mL; MIC50 against the different S. haemolyticus strains [3]: 100 to 780 µg/mL
SCTTCVCTCSCCTT [MP1, micrococcin P1] | clear inhibition zones at all three concentrations | 0.02 µg/mL | 0.023 µg/mL | 0.078 µg/mL | 0.15 µg/mL | > 10 µg/mL | > 10 µg/mL | 0.02 µg/mL | 0.33 µg/mL | 0.13 µg/mL | 0.043 µg/mL | > 10 µg/mL | > 10 µg/mL | 0.039 µg/mL | > 10 µg/mL | 0.63 µg/mL | 0.022 µg/mL | 0.072 µg/mL | 0.14 µg/mL | 
garvicin KS [GarKS] | some inhibition was seen only at the highest concentration | 6.5 µg/mL | 24 µg/mL | 25 µg/mL | 3.3 µg/mL | 13 µg/mL | 26 µg/mL | 12 µg/mL | 48 µg/mL | 51 µg/mL | 12.5 µg/mL | 51 µg/mL | 100 µg/mL | 23.6 µg/mL | 49 µg/mL | 52 µg/mL | 12.5 µg/mL | 51 µg/mL | 51 µg/mL | 
